Test results reported in US7544694B2, “Substituted diaza-spiro-[5.5]-undecane derivatives and their use as neurokinin antagonists” (Janssen Pharmaceutica N.V., priority 2004, dated 2009).

How the values were obtained:
Format in all cases: cell-based
NK2 = target: T1, NK2 (Homo sapiens, UniProt P21452); experiment: Signal transduction (ST), intracellular Ca++ (FLIPR), NK2; details: antagonist, read-out: NK2 pIC50 (converted)
T1 sequence (P21452 1-398): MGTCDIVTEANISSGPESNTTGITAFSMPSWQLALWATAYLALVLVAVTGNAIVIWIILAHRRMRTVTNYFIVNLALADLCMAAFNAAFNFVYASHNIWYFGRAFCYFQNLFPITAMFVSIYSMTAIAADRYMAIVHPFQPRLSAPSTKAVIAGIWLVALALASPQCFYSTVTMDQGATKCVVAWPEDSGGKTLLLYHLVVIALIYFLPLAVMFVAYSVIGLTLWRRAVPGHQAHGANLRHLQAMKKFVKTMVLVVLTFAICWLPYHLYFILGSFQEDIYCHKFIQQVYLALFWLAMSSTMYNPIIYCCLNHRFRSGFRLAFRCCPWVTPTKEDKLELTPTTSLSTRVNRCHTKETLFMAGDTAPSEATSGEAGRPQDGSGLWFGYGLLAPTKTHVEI

NK1 = NK1 (Homo sapiens, UniProt P25103); experiment: Signal transduction (ST), intracellular Ca++ (FLIPR), functional NK1 antagonistic activity; details: antagonist, read-out: NK1 pIC50 (converted)
Chain of NK1 (P25103 whole entry): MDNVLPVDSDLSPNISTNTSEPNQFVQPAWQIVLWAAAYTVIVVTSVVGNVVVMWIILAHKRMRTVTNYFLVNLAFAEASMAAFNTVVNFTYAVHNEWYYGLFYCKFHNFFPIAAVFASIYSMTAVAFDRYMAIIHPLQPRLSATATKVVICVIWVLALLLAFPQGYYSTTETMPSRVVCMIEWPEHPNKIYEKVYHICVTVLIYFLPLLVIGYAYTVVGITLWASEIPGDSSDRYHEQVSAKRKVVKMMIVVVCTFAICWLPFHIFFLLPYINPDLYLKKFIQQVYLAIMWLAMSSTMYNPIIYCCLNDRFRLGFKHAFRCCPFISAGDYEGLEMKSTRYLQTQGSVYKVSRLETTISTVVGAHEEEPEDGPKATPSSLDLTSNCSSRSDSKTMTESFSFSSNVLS
Outline: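 Confluent cells were loaded with 2 μM Fluo3 for 1 h at 37° C, then washed into Krebs buffer pH 7.4 with 1.25 mM CaCl2 and 2.5 mM probenecid. Antagonists were preincubated 20 min at RT before agonist addition. Peak Ca++ transients were read by FLIPR, with EC50 or IC50 from sigmoidal non-linear regression.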

NK3 = target: T2, NK3 (Homo sapiens, UniProt P29371); experiment: Signal transduction (ST), intracellular Ca++ (FLIPR), NK3; details: antagonist, read-out: NK3 pIC50 (converted)
T2 sequence (P29371 1-465): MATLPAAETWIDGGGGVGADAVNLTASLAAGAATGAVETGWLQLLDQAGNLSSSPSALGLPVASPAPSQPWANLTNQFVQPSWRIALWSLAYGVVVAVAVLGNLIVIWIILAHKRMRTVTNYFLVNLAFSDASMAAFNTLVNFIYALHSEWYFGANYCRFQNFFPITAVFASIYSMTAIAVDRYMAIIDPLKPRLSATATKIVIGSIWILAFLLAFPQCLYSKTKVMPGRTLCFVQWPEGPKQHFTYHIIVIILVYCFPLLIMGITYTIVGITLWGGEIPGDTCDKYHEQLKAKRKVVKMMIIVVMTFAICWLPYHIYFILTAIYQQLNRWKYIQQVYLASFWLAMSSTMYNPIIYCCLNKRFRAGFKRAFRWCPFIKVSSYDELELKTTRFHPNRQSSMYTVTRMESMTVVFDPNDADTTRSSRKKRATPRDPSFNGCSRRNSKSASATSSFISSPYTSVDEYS

| SMILES | IC50 (NK2) [nM] | IC50 (NK1) [nM] | IC50 (NK3) [nM] |
| --- | --- | --- | --- |
| Cc1nnsc1C(=O)N1CCC2(CCN(C[C@H]3CCN(C(=O)c4cc(C(F)(F)F)cc(C(F)(F)F)c4)[C@H](Cc4ccccc4)C3)CC2)CC1 [Compound 183] | 7760 | 17 | 7410 |
| O=C(C1CC1)N1CCC2(CC1)CCN(C(=O)[C@H]1CCN(C(=O)c3cc(C(F)(F)F)cc(C(F)(F)F)c3)[C@H](Cc3ccccc3)C1)CC2 [Compound 186] | 5010 | 17 | 5370 |
| CC(C)(C)OC(=O)N1CCCC1C(=O)N1CCC2(CC1)CCN(C(=O)[C@H]1CCN(C(=O)c3cc(C(F)(F)F)cc(C(F)(F)F)c3)[C@H](Cc3ccccc3)C1)CC2 (stereo partly drawn) [Compound 188] | 5500 | 15.1 | 3720 |
| O=C(c1ccsc1)N1CCC2(CC1)CCN(C(=O)[C@H]1CCN(C(=O)c3cc(C(F)(F)F)cc(C(F)(F)F)c3)[C@H](Cc3ccccc3)C1)CC2 [Compound 189] | 6760 | 28.8 | > 10000 |
| CC(C)CN1CCC2(CCN([C@@H]3CCN(C(=O)c4cc(C(F)(F)F)cc(C(F)(F)F)c4)[C@H](Cc4ccccc4)C3)CC2)CC1=O [Compound 193] | 2510 | 240 | 5750 |
| O=C1CC2(CCN1CC1CC1)CCN(C1CCN(C(=O)c3cc(C(F)(F)F)cc(C(F)(F)F)c3)C(Cc3ccccc3)C1)CC2 (stereo not drawn) [Compound 195] | ~1410 | 53.7 | 1450 |
| O=C1CC2(CCN1CC1CCC1)CCN([C@@H]1CCN(C(=O)c3cc(C(F)(F)F)cc(C(F)(F)F)c3)[C@H](Cc3ccccc3)C1)CC2 [Compound 197] | 2880 | 191 | 6460 |
| Cc1noc(C)c1CN1CCC2(CCN([C@H]3CCN(C(=O)c4cc(C(F)(F)F)cc(C(F)(F)F)c4)[C@H](Cc4ccccc4)C3)CC2)CC1=O [Compound 200] | 1450 | 23.4 | 6920 |

Continued, values first:

| IC50 (NK2) [nM] | IC50 (NK1) [nM] | IC50 (NK3) [nM] | SMILES |
| --- | --- | --- | --- |
| 7080 | 33.9 | > 10000 | CC(C)(C)OC(=O)N1CCCC1C(=O)N1CCC2(CCN(C[C@H]3CCN(C(=O)c4cc(C(F)(F)F)cc(C(F)(F)F)c4)[C@H](Cc4ccccc4)C3)CC2)CC1 (stereo partly drawn) [Compound 181] |
| > 10000 | 38 | 9120 | O=C(c1ccsc1)N1CCC2(CCN(C[C@H]3CCN(C(=O)c4cc(C(F)(F)F)cc(C(F)(F)F)c4)[C@H](Cc4ccccc4)C3)CC2)CC1 [Compound 182] |
| 5500 | 81.3 | > 10000 | O=C(C1CCN(C(=O)c2cc(C(F)(F)F)cc(C(F)(F)F)c2)C(Cc2ccccc2)C1)N1CCC2(CCN(Cc3ccccc3)CC2)CC1 (stereo not drawn) [Compound 185] |
| 7080 | 20 | > 10000 | O=C(C1CCOC1)N1CCC2(CC1)CCN(C(=O)[C@H]1CCN(C(=O)c3cc(C(F)(F)F)cc(C(F)(F)F)c3)[C@H](Cc3ccccc3)C1)CC2 (stereo partly drawn) [Compound 187] |
| 1620 | 6.17 | 3550 | Cc1nnsc1C(=O)N1CCC2(CC1)CCN(C(=O)[C@H]1CCN(C(=O)c3cc(C(F)(F)F)cc(C(F)(F)F)c3)[C@H](Cc3ccccc3)C1)CC2 [Compound 190] |
| 4790 | 339 | > 10000 | O=C1CC2(CCN1Cc1ccoc1)CCN([C@@H]1CCN(C(=O)c3cc(C(F)(F)F)cc(C(F)(F)F)c3)[C@H](Cc3ccccc3)C1)CC2 [Compound 198] |
| 2750 | 37.2 | 851 | O=C1CC2(CCN1Cc1ccoc1)CCN([C@H]1CCN(C(=O)c3cc(C(F)(F)F)cc(C(F)(F)F)c3)[C@H](Cc3ccccc3)C1)CC2 [Compound 199] |
| 2820 | 219 | ~10000 | Cc1noc(C)c1CN1CCC2(CCN([C@@H]3CCN(C(=O)c4cc(C(F)(F)F)cc(C(F)(F)F)c4)[C@H](Cc4ccccc4)C3)CC2)CC1=O [Compound 201] |
| 4570 | 245 | 7240 | O=C1CC2(CCN1Cc1ccccc1F)CCN([C@H]1CCN(C(=O)c3cc(C(F)(F)F)cc(C(F)(F)F)c3)[C@H](Cc3ccccc3)C1)CC2 [Compound 202] |
